Laboratory results reported in US6737383B1, “Herbicidal oxadiazolidines” (priority 1999, dated 2004).

What was measured:
[1] = system: bamyardgrass; experiment: Test B flood test barnyardgrass; format: in vivo, Echinochloa crus-galli
Method: At the same time, these crop and weed species were also treated with postemergence applications of test chemicals formulated in the same manner. Plants ranged in height from 2 to 18 cm (1- to 4-leaf stage) for postemergence treatments. Plant species in the flood test consisted of rice (Oryza sativa), smallflower flatsedge (Cyperus difformis), duck salad (Heteranthera limosa) and bamyardgrass (Echinochloa crus-galli) grown to the 2-leaf stage for testing. Treated plants and controls were maintained in a greenhouse for twelve to sixteen days, after which all species were compared to controls and visually evaluated. Plant response ratings, summarized in Table B, are based on a scale of 0 to 10 where 0 is no effect and 10 is complete control. A dash (−) response means no test result.

[2] = system: rice; experiment: Test B flood test rice; format: in vivo, Oryza sativa
Procedure, shortened: (§1)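 Read-out is a visual response score from 0 (no effect) to 10 (complete control), assigned by comparison with untreated controls. Treatment was applied at the 2-leaf stage, and plants stayed in the greenhouse for twelve to sixteen days before scoring.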

[3] = system: duck salad; experiment: Test B flood test duck salad; format: in vivo, Heteranthera limosa
Procedure, shortened: as §1

[4] = system: smallflower flatsedge; experiment: Test B flood test smallflower flatsedge; format: in vivo, Cyperus difformis
Procedure, shortened: as §1

[5] = system: crabgrass; experiment: Test B pre/postemergence crabgrass; format: in vivo, Digitaria sanguinalis
Procedure, shortened: (§2)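 Response is a visual 0-to-10 score relative to untreated plants, where 0 means no effect and 10 means complete control, taken twelve to sixteen days after application. Treatments went onto soil at planting and onto foliage of 1- to 4-leaf plants, using a surfactant-containing non-phytotoxic solvent.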

[6] = system: pigweed; experiment: Test B pre/postemergence pigweed; format: in vivo, Amaranthus retroflexus
Procedure, shortened: as §2

[7] = system: wild oat; experiment: Test B pre/postemergence wild oat; format: in vivo, Avena fatua
Procedure, shortened: as §2

[8] = system: bedstraw; experiment: Test B pre/postemergence bedstraw; format: in vivo, Galium aparine
Procedure, shortened: as §2

[9] = system: wheat; experiment: Test B pre/postemergence wheat; format: in vivo, Triticum aestivum
Procedure, shortened: as §2

[10] = system: surinam grass; experiment: Test B pre/postemergence surinam grass; format: in vivo, Brachiaria decumbens
Procedure, shortened: as §2

[11] = system: sugar beet; experiment: Test B pre/postemergence sugar beet; format: in vivo, Beta vulgaris
Procedure, shortened: as §2

[12] = system: corn; experiment: Test B pre/postemergence corn; format: in vivo, Zea mays
Procedure, shortened: as §2

[13] = system: giant foxtail; experiment: Test B pre/postemergence giant foxtail; format: in vivo, Setaria faberii
Procedure, shortened: as §2

[14] = system: velvetleaf; experiment: Test B pre/postemergence velvetleaf; format: in vivo, Abutilon theophrasti
Procedure, shortened: as §2

[15] = system: purple nutsedge; experiment: Test B pre/postemergence purple nutsedge; format: in vivo, Cyperus rotundus
Procedure, shortened: as §2

[16] = system: morningglory; experiment: Test B pre/postemergence morningglory; format: in vivo, Ipomoea hederacea
Procedure, shortened: as §2

[17] = system: rape; experiment: Test B pre/postemergence rape; format: in vivo, Brassica napus
Procedure, shortened: as §2

[18] = system: cocklebur; experiment: Test B pre/postemergence cocklebur; format: in vivo, Xanthium strumarium
Procedure, shortened: as §2

[19] = system: soybean; experiment: Test B pre/postemergence soybean; format: in vivo, Glycine max
Procedure, shortened: as §2

[20] = system: blackgrass; experiment: Test B pre/postemergence blackgrass; format: in vivo, Alopecurus myosuroides
Procedure, shortened: as §2

[21] = Rate 62 g/ha, flood test species, Pre-emergence, visual evaluation after twelve to sixteen days
[22] = Rate 125 g/ha, under heading Pre-emergence, flood test species, visual evaluation after twelve to sixteen days
[23] = Rate 250 g/ha, Pre-emergence (flood test species), scale 0 to 10, 0 is no effect, 10 is complete control
[24] = Rate 500 g/ha, Pre-emergence section of Table B, 0 to 10 scale (0 no effect, 10 complete control)
[25] = Postemergence, Rate 62 g/ha, scale of 0 to 10, 0 is no effect, 10 is complete control
[26] = Postemergence, Rate 500 g/ha, scale 0 to 10, 0 is no effect, 10 is complete control
[27] = Preemergence, Rate 62 g/ha, scale 0 to 10 (0 no effect, 10 complete control)
[28] = Preemergence, Rate 125 g/ha, scale 0 to 10, 0 is no effect, 10 is complete control
[29] = Preemergence, Rate 500 g/ha, scale of 0 to 10 where 0 is no effect and 10 is complete control
[30] = Rate 250 g/ha, Postemergence, scale of 0 to 10 where 0 is no effect and 10 is complete control
[31] = Postemergence, Rate 125 g/ha, scale 0 to 10, 0 is no effect, 10 is complete control

Structure (SMILES): C=C(C(=O)OC)C(C)n1c(=O)on(C(=O)N(c2ccccc2)C(C)C)c1=O (stereo not drawn) [Compound 651]
- Plant response rating, Barnyardgrass (0 to 10 scale, 0 is no effect, 10 is complete control) [1, 21]: 0
- Barnyardgrass plant response rating (0 to 10 scale, 0 is no effect, 10 is complete control) [1, 22]: 0
- Barnyardgrass plant response rating [1, 23]: 0
- Barnyardgrass plant response rating [1, 24]: 0
- Plant response rating, Rice (0 to 10 scale, 0 is no effect, 10 is complete control) [2, 21]: 0
- Rice plant response rating (0 to 10 scale, 0 is no effect, 10 is complete control) [2, 22]: 0
- Rice plant response rating [2, 23]: 0
- Rice plant response rating [2, 24]: 0
- Plant response rating, Ducksalad (0 to 10 scale, 0 is no effect, 10 is complete control) [3, 21]: 0
- Ducksalad plant response rating (0 to 10 scale, 0 is no effect, 10 is complete control) [3, 22]: 0
- Ducksalad plant response rating [3, 23]: 0
- Ducksalad plant response rating [3, 24]: 0
- Plant response rating, S. Flatsedge (0 to 10 scale, 0 is no effect, 10 is complete control) [4, 21]: 0
- S. Flatsedge plant response rating (0 to 10 scale, 0 is no effect, 10 is complete control) [4, 22]: 0
- S. Flatsedge plant response rating [4, 23]: 0
- S. Flatsedge plant response rating [4, 24]: 0

Structure (SMILES): CC(C)N(C(=O)n1oc(=O)n(CCC(F)(F)F)c1=O)c1ccc(Cl)cc1 [Compound 554]
- Crabgrass plant response rating [5, 25]: 0
- Plant response rating, Crabgrass [5, 26]: 9
- Crabgrass plant response rating [5, 27]: 9
- Crabgrass plant response rating [5, 28]: 10
- Crabgrass plant response rating [5, 29]: 10
- Plant response rating, Crabgrass [5, 30]: 9
- Redroot pigweed plant response rating [6, 25]: 0
- Redroot pigweed plant response rating [6, 27]: 9
- Redroot pigweed plant response rating [6, 29]: 10
- Plant response rating, Redroot pigweed [6, 30]: 7
- Wild oats plant response rating [7, 25]: 0
- Wild oats plant response rating [7, 27]: 0
- Wild oats plant response rating [7, 28]: 2
- Wild oats plant response rating (0 to 10 scale) ([7]; Preemergence, Rate 250 g/ha): 2
- Wild oats plant response rating [7, 29]: 9
- Plant response rating, Wild oats [7, 30]: 2
- Bedstraw plant response rating [8, 25]: 5
- Bedstraw plant response rating [8, 31]: 5
- Plant response rating, Bedstraw [8, 26]: 9
- Bedstraw plant response rating [8, 27]: 0
- Bedstraw plant response rating [8, 28]: 0
- Bedstraw plant response rating (0 to 10 scale) ([8]; Preemergence, Rate 250 g/ha): 0
- Bedstraw plant response rating [8, 29]: 0
- Plant response rating, Bedstraw [8, 30]: 7
- Wheat plant response rating [9, 25]: 0
- Wheat plant response rating [9, 27]: 3
- Wheat plant response rating [9, 28]: 3
- Wheat plant response rating [9, 29]: 6
- Plant response rating, Wheat [9, 30]: 2
- B. signalgrass plant response rating [10, 25]: 0
- B. signalgrass plant response rating [10, 31]: 0
- Plant response rating, B. signalgrass [10, 26]: 3
- B. signalgrass plant response rating [10, 27]: 7
- B. signalgrass plant response rating [10, 28]: 7
- B. signalgrass plant response rating (0 to 10 scale, 0 is no effect, 10 is complete control) ([10]; Preemergence, Rate 250 g/ha): 6
- B. signalgrass plant response rating [10, 29]: 10
- Plant response rating, B. signalgrass [10, 30]: 0
- Sugarbeets plant response rating [11, 25]: 0
- Sugarbeets plant response rating [11, 27]: 0
- Sugarbeets plant response rating [11, 28]: 0
- Sugarbeets plant response rating (0 to 10 scale) ([11]; Preemergence, Rate 250 g/ha): 0
- Sugarbeets plant response rating [11, 29]: 6
- Plant response rating, Sugarbeets [11, 30]: 7
- Corn plant response rating [12, 25]: 0
- Corn plant response rating [12, 31]: 0
- Plant response rating, Corn [12, 26]: 0
- Corn plant response rating [12, 27]: 0
- Corn plant response rating [12, 28]: 0
- Corn plant response rating (0 to 10 scale) ([12]; Preemergence, Rate 250 g/ha): 0
- Corn plant response rating [12, 29]: 2
- Plant response rating, Corn [12, 30]: 0
- Giant foxtail plant response rating [13, 25]: 2
- Giant foxtail plant response rating [13, 31]: 6
- Plant response rating, Giant foxtail [13, 26]: 8
- Giant foxtail plant response rating [13, 27]: 9
- Giant foxtail plant response rating [13, 28]: 9
- Giant foxtail plant response rating (0 to 10 scale) ([13]; Preemergence, Rate 250 g/ha): 9
- Giant foxtail plant response rating [13, 29]: 10
- Plant response rating, Giant foxtail [13, 30]: 8
- Velvetleaf plant response rating [14, 25]: 0
- Plant response rating, Velvetleaf [14, 26]: 0
- Velvetleaf plant response rating [14, 27]: 0
- Velvetleaf plant response rating [14, 28]: 0
- Velvetleaf plant response rating (0 to 10 scale) ([14]; Preemergence, Rate 250 g/ha): 0
- Velvetleaf plant response rating [14, 29]: 0
- Plant response rating, Velvetleaf [14, 30]: 0
- Nutsedge plant response rating [15, 25]: 0
- Nutsedge plant response rating [15, 31]: 0
- Plant response rating, Nutsedge [15, 26]: 0
- Nutsedge plant response rating [15, 27]: 0
- Nutsedge plant response rating [15, 28]: 0
- Nutsedge plant response rating (0 to 10 scale) ([15]; Preemergence, Rate 250 g/ha): 0
- Nutsedge plant response rating [15, 29]: 0
- Plant response rating, Nutsedge [15, 30]: 0
- Morningglory plant response rating [16, 25]: 1
- Morningglory plant response rating [16, 31]: 2
- Plant response rating, Morningglory [16, 26]: 7
- Morningglory plant response rating [16, 28]: 0
- Morningglory plant response rating (0 to 10 scale) ([16]; Preemergence, Rate 250 g/ha): 0
- Morningglory plant response rating [16, 29]: 0
- Plant response rating, Morningglory [16, 30]: 5
- Rape plant response rating [17, 25]: 0
- Rape plant response rating [17, 31]: 0
- Plant response rating, Rape [17, 26]: 3
- Rape plant response rating [17, 27]: 0
- Rape plant response rating [17, 28]: 0
- Rape plant response rating (0 to 10 scale) ([17]; Preemergence, Rate 250 g/ha): 0
- Rape plant response rating [17, 29]: 3
- Plant response rating, Rape [17, 30]: 0
- Cocklebur plant response rating [18, 25]: 0
- Cocklebur plant response rating [18, 31]: 0
- Plant response rating, Cocklebur [18, 26]: 3
- Cocklebur plant response rating [18, 27]: 0
- Cocklebur plant response rating [18, 28]: 0
- Cocklebur plant response rating (0 to 10 scale) ([18]; Preemergence, Rate 250 g/ha): 0
- Cocklebur plant response rating [18, 29]: 0
- Plant response rating, Cocklebur [18, 30]: 0
- Soybean plant response rating [19, 25]: 2
- Plant response rating, Soybean [19, 26]: 3
- Soybean plant response rating [19, 27]: 0
- Soybean plant response rating [19, 28]: 0
- Soybean plant response rating (0 to 10 scale) ([19]; Preemergence, Rate 250 g/ha): 3
- Soybean plant response rating [19, 29]: 3
- Plant response rating, Soybean [19, 30]: 3
- Blackgrass plant response rating [20, 25]: 0
- Blackgrass plant response rating [20, 31]: 3
- Blackgrass plant response rating [20, 28]: 4
- Blackgrass plant response rating (0 to 10 scale) ([20]; Preemergence, Rate 250 g/ha): 4
- Blackgrass plant response rating [20, 29]: 7
- Plant response rating, Blackgrass [20, 30]: 7
